Read-outs that look alike come from different tables or passages of the source.
Assays:
[1] = biological target: recombinant human androgen receptor (AR) protein (Homo sapiens, UniProt P10275); format: binding
[2] = for metabolites detected after administration: high-resolution mass spectrometry; for metabolites detected after administration / concentration of metabolites in serum and brain (in words): metabolite = compound of Example 3; for concentration of the compound in serum and brain (in words): after administration
Procedure: • (1) The experimental protocol was referenced and complied with the National Institutes of Health Guide for the Care and Use of Laboratory Animals, and was approved by the Laboratory Animal Welfare and Ethics Committee of the Chinese Institute for Brain Research (CIBR). • (2) Wild-type male C57BL/6J mice, aged 6-7 weeks and weighing 18-22 grams, were used. The mice were housed in a constant-temperature incubator with a 12-hour light-dark cycle and free access to food and water. Food was withheld one day before the experiment, while free access to water was permitted. The mice were injected intraperitoneally with the test compound at a dose of 20 mg/kg. […] After sampling, the samples were immediately centrifuged at low speed to remove blood cells, and hemolysis was minimized as much as possible. After collection, the serum was sent to the mass spectrometry center for pretreatment. • (4) The brain tissue was rapidly dissected after treatment and frozen in liquid nitrogen for later use.
The sample (100 μL) was warmed to the room temperature, acetonitrile: methanol (500 μL, v/v=50:50) was added to the solution, and the sample was vortexed for 20 s. The sample was centrifuged at 5,000 g for 15 min at 4° C. Subsequently, 90% of the supernatant was transferred to a glass tube and concentrated at 45° C. for 1.5 h using a vacuum concentrator. The dried sample was reconstituted in 400 μL of acetonitrile and water mixture (v/v=50/50) and vortexed for 20 s. The resulting mixture was transferred to an EP tube and centrifuged at 5,000 g for 15 min at 4° C. The supernatant was filtered through a 0.22 μm filter and analyzed by LC-MS/MS.
The brain sample (100 mg) was thawed, transferred to a homogenizer tube containing three zirconia beads, and homogenized. After processing as described for the serum samples, the supernatant was then filtered through a 0.22 μm filter, and analyzed by LC-MS/MS.

androgen receptor = biological target: T1, androgen receptor (Homo sapiens, UniProt P10275); assay: cell-based; format: cell-based; conditions: for Emax: HEK-293T, read-out: % relative efficacy
T1 construct: expressed in transfected cells; host or cells: HEK293T (ATCC, CRL-3216)
T1 sequence (P10275 whole entry): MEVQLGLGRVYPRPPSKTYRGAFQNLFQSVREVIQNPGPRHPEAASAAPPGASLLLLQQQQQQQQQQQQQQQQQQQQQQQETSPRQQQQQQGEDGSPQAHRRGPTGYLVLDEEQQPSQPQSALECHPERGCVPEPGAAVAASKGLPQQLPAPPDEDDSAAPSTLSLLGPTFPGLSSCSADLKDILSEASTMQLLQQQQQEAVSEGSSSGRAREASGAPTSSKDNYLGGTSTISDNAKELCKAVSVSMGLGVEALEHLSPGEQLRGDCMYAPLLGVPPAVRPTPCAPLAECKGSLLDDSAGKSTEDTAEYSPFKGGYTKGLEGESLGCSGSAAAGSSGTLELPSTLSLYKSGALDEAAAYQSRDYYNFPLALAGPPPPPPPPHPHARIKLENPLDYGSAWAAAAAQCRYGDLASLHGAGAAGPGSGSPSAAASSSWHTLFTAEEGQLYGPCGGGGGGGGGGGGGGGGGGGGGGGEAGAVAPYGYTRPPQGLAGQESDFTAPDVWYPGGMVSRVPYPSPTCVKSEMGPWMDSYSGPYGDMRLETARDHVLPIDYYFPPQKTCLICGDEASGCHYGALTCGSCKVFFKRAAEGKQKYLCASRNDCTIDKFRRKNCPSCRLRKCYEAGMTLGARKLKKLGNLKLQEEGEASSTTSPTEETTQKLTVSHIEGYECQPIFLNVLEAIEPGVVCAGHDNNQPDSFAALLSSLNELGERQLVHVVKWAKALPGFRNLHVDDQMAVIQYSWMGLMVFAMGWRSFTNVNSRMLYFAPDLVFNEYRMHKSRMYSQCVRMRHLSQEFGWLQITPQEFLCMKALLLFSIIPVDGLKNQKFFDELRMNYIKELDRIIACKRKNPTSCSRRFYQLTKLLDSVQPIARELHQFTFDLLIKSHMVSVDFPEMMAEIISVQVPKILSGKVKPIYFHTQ
Procedure: Androgen Receptor Reporter Gene Assay (AR Reporter Gene Assay)
This experiment was performed to investigate the agonistic activity of the compounds of the present disclosure on androgen receptors.
The EC50 was calculated according to the following formula: […]
X represents the logarithm of the activator concentration; Y represents the […]; Bottom represents the lowest plateau value of the curve; Top represents the highest plateau value of the curve; and Hillslope represents the slope of the curve.
The % relative effectiveness was calculated according to the following formula: […]
Activatedcmpd: mean activation value of the compound signal across the entire plate.
ActivatedAve_PC: mean activation value of the positive control across the entire plate.
ActivatedAve_VC: mean activation value of the vehicle control across the entire plate.

[3] = mouse, 20 mg/kg intraperitoneal

Sequence of recombinant human androgen receptor (AR) protein (P10275 673-918): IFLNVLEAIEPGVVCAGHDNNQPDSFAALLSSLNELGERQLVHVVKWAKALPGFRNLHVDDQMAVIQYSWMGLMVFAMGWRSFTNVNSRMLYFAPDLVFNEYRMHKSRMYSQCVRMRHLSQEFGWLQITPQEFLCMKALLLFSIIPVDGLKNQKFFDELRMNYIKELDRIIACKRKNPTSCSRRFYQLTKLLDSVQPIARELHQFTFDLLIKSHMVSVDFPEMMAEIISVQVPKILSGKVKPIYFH

Row | Compound | metabolites detected after administration [2] | concentration of metabolites in serum and brain (in words) [2] | blood-brain barrier permeability (in words) [2, 3] | concentration of the compound in serum and brain (in words) ([2]; parent compound) | other results
1 | C[C@@](COc1ccc(C#N)cc1)(OC(=O)c1ccccc1)C(=O)Nc1cnc(C#N)c(C(F)(F)F)c1 [Ex. 26, (S)-1-((6-cyano-5-(trifluoromethyl)pyridin-3-yl)amino)-3-(4-cyanophenoxy)-2-methyl-1-oxopropan-2-yl benzoate] | detected | higher concentrations of metabolites | certain blood-brain barrier permeability | lower concentrations of the compound | affinity to the androgen receptor proteins (in words) [1]: strong affinity
2 | C[C@@](COc1ccc(C#N)cc1)(OC(=O)C1CCCC1)C(=O)Nc1cnc(C#N)c(C(F)(F)F)c1 [Ex. 22, (S)-1-((6-cyano-5-(trifluoromethyl)pyridin-3-yl)amino)-3-(4-cyanophenoxy)-2-methyl-1-oxopropan-2-yl cyclopentanecarboxylate] | detected | higher concentrations of metabolites | certain blood-brain barrier permeability | lower concentrations of the compound | Emax (androgen receptor): 2.3%
3 | C[C@](O)(COc1ccc(C#N)c(F)c1)C(=O)Nc1cnc(C#N)c(C(F)(F)F)c1 [Ex. 8, (S)-3-(4-cyano-3-fluorophenoxy)-N-(6-cyano-5-(trifluoromethyl)pyridin-3-yl)-2-hydroxy-2-methylpropionamide] | – | – | – | – | concentration detected in serum and brain (in words) ([2]; mouse, in vivo, ip, 20 mg/kg): certain concentrations of the compound were detected in serum and brain up to 72 h after administration; blood-brain barrier permeability (in words) ([2]; mouse, not told, ip, 20 mg/kg): good blood-brain barrier permeability
4 | C[C@@](COc1ccc(C#N)cc1)(OC(=O)CCCC[C@@H]1CCSS1)C(=O)Nc1cnc(C#N)c(C(F)(F)F)c1 [Ex. 15, (S)-1-((6-cyano-5-(trifluoromethyl)pyridin-3-yl)amino)-3-(4-cyanophenoxy)-2-methyl-1-oxopropyl-2-yl 5-((R)-1,2-dithiolan-3-yl) pentanoate] | – | – | – | – | metabolism (in words) ([2]; mouse, in vivo): may undergo rapid metabolic processes in vivo
5 | C[C@](O)(COc1ccc(C#N)nc1)C(=O)Nc1cnc(C#N)c(C(F)(F)F)c1 [Ex. 5, (S)-N-(6-cyano-5-(trifluoromethyl)pyridin-3-yl)-3-((6-cyanopyridin-3-yl)oxy)-2-hydroxy-2-methylpropionamide] | – | – | – | – | affinity to the androgen receptor proteins (in words) [1]: strong affinity; androgen receptor protein binding affinity and agonistic activity (in words) (androgen receptor): excellent androgen receptor protein binding affinity and agonistic activity
6 | C[C@](O)(COc1ccc(C#N)nc1)C(=O)Nc1ccc(C#N)c(C(F)(F)F)c1 [Ex. 4, (S)-N-(4-cyano-3-(trifluoromethyl)phenyl)-3-((6-cyanopyridin-3-yl)oxy)-2-hydroxy-2-methylpropionamide] | – | – | – | – | affinity to the androgen receptor proteins (in words) [1]: strong affinity
7 | C[C@](O)(COc1ccc(C#N)cc1)C(=O)Nc1cnc(C#N)c(C(F)(F)F)c1 [Ex. 3, (S)-N-(6-cyano-5-(trifluoromethyl)pyridin-3-yl)-3-(4-cyanophenoxy)-2-hydroxy-2-methylpropionamide] | – | – | good blood-brain barrier permeability | – | affinity to the androgen receptor proteins (in words) [1]: strong affinity; androgen receptor protein binding affinity and agonistic activity (in words) (androgen receptor): excellent androgen receptor protein binding affinity and agonistic activity; concentration detected in serum and brain (in words) ([2]; up to 72 h, 20 mg/kg intraperitoneal, parent compound): certain concentrations of the compound were detected in serum and brain up to 72 h after administration
8 | C[C@@](COc1ccc(Cl)nc1)(OC(=O)c1cccnc1)C(=O)Nc1cnc(C#N)c(C(F)(F)F)c1 [Ex. 30, (S)-1-((6-cyano-5-(trifluoromethyl)pyridin-3-yl)amino)-3-((6-chloropyridin-3-yl)oxy)-2-methyl-1-oxopropan-2-yl nicotinate] | – | – | – | – | Emax (androgen receptor): 14.5%
9 | CCC(=O)O[C@@](C)(COc1ccc(C#N)cc1)C(=O)Nc1cnc(C#N)c(C(F)(F)F)c1 [Ex. 28, (S)-1-((6-cyano-5-(trifluoromethyl)pyridin-3-yl)amino)-3-(4-cyanophenoxy)-2-methyl-1-oxopropan-2-yl-propionate] | detected | higher concentrations of metabolites | certain blood-brain barrier permeability | lower concentrations of the compound | –
10 | CC(C)C(=O)O[C@@](C)(COc1ccc(C#N)cc1)C(=O)Nc1cnc(C#N)c(C(F)(F)F)c1 [Ex. 21, (S)-1-((6-cyano-5-(trifluoromethyl)pyridin-3-yl)amino)-3-(4-cyanophenoxy)-2-methyl-1-oxopropan-2-yl isobutyrate] | detected | higher concentrations of metabolites | certain blood-brain barrier permeability | lower concentrations of the compound | –
11 | C[C@](O)(COc1cc(C(F)(F)F)ncn1)C(=O)Nc1ccc(C#N)c(C(F)(F)F)c1 [Ex. 2, (S)-N-(4-cyano-3-(trifluoromethyl)phenyl)-2-hydroxy-2-methyl-3-((6-(trifluoromethyl)pyrimidin-4-yl)oxy)propionamide] | – | – | – | – | Affinity KD ([1]; Biacore T200, CM5 chip, human AR Ile673-His918 with N-terminal His Tag): No binding
12 | C[C@@](COc1ccc(C#N)cc1)(OC(=O)c1cccnc1)C(=O)Nc1cnc(C#N)c(C(F)(F)F)c1 [Ex. 13, (S)-1-((6-cyano-5-(trifluoromethyl)pyridin-3-yl)amino)-3-(4-cyanophenoxy)-2-methyl-1-oxopropan-2-yl nicotinate] | detected | higher concentrations of metabolites | certain blood-brain barrier permeability | lower concentrations of the compound | –
13 | C[C@](O)(COc1cc(C(F)(F)F)ncn1)C(=O)Nc1cnc(C#N)c(C(F)(F)F)c1 [Ex. 1, (S)-N-(6-cyano-5-(trifluoromethyl)pyridin-3-yl)-2-hydroxy-2-methyl-3-((6-(trifluoromethyl)pyrimidin-4-yl)oxy)propionamide] | – | – | – | – | Affinity KD [1]: No binding
14 | CC(=O)O[C@@](C)(COc1ccc(C#N)cc1)C(=O)Nc1cnc(C#N)c(C(F)(F)F)c1 [Ex. 24, (S)-1-((6-cyano-5-(trifluoromethyl)pyridin-3-yl)amino)-3-(4-cyanophenoxy)-2-methyl-1-oxopropan-2-yl acetate] | detected | – | – | – | bioavailability in the brain (in words) ([2]; compared with Example 3): significantly improved; metabolism (in words) ([2]; in vivo, mouse): partially metabolized to the compound of Example 3; total concentration of parent drug and metabolites in the brain (in words) ([2]; mouse, in vivo): significantly higher

From US20260294908A1, “NEUROACTIVE ANDROGEN RECEPTOR MODULATORS AND USE THEREOF” (priority 2023, published 2026)
